{
  "source": "patent US10294207B2",
  "about": "“Pyrazole derivatives as TNIK, IKKϵ and TBK1 inhibitor and pharmaceutical composition comprising same” (GREEN CROSS CORPORATION, priority 2015, dated 2019)",
  "biological_target": "T1, TBK1 (Homo sapiens, UniProt Q9UHD2)",
  "T1 construct": "purchased Promega V3991",
  "T1 sequence (Q9UHD2 1-729)": "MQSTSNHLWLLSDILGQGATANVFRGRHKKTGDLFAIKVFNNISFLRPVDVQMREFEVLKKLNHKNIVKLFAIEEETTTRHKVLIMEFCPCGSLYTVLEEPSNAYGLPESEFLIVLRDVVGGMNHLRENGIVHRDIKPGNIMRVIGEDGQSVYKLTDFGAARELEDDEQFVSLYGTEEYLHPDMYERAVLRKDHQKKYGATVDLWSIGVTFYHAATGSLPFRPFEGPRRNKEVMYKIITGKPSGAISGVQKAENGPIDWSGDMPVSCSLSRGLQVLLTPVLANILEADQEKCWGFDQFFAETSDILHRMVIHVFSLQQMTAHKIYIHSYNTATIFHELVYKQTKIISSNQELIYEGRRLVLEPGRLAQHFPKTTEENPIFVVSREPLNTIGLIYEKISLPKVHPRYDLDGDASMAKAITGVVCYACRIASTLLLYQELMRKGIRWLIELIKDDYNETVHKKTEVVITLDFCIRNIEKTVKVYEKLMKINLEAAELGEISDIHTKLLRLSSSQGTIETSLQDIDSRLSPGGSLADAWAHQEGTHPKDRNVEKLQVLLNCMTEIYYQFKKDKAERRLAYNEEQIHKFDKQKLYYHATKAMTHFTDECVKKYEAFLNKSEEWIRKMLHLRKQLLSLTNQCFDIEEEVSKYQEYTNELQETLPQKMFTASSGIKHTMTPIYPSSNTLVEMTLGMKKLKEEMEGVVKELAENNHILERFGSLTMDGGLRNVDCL",
  "assay": "TBK1 inhibition, ADP-Glo Kinase Assay",
  "type": "biochemical",
  "conditions": "luminometer",
  "method": "Inhibition activities on TNIK, IKKε and TBK1 were evaluated using the compounds of Examples 1 to 254.\nThe inhibition activities on TNIK, IKKε and TBK1 were measured by a luminometer, TNIK/IKKε/TBK1 Kinase Enzyme System (Promega, Ca# V4158; Invitrogen, PR8031B, Promega, Ca# V3991) and ADP-Glo Kinase Assay using ADP-Glo™ Kinase Analysis Kit (Promega, Ca# V9101) and a kinase reaction buffer [40 mM Tris(pH 7.5), 20 mM MgCl2, 0.1 mg/mL BSA] in accordance with the manufacturer's protocol.",
  "data": [
    {"molecule": "O=C(NCc1cccs1)c1ccc2[nH]nc(NC(=O)c3ccc(NC4CCCCCCC4)cc3)c2c1", "note": "[Example 165, 3-(4-(Cyclooctylamino)benzamido)-N-(thiophen-2-ylmethyl)-1H-indazole-5-carboxamide]", "values": [
      {"measurement": "IC50", "result": 0.43, "unit": "µM"}
    ]},
    {"molecule": "CCCCCCNc1ccc(C(=O)Nc2n[nH]c3ccc(C(=O)NCc4cccs4)cc23)cc1", "note": "[Example 161, 3-(4-(Hexylamino)benzamido)-N-(thiophen-2-ylmethyl)-1H-indazole-5-carboxamide]", "values": [
      {"measurement": "IC50", "result": 0.76, "unit": "µM"}
    ]},
    {"molecule": "CC(C)(C)c1ccc(C(=O)Nc2n[nH]c3ccc(C(=O)NCc4cccs4)cc23)cc1", "note": "[Example 10, 3-(4-tert-Butylbenzamido)-N-(thiophen-2-ylmethyl)-1H-indazole-5-carboxamide]", "values": [
      {"measurement": "IC50", "result": 0.03, "unit": "µM"}
    ]},
    {"molecule": "CN(Cc1cccs1)C(=O)c1ccc2[nH]nc(NC(=O)c3ccc(N4CCOCC4)cc3)c2c1", "note": "[Example 42, N-Methyl-3-(4-morpholinobenzamido)-N-(thiophen-2-ylmethyl)-1H-indazole-5-carboxamide]", "values": [
      {"measurement": "IC50", "result": 0.2, "unit": "µM"}
    ]},
    {"molecule": "O=C(NCc1cccs1)c1ccc2[nH]nc(NC(=O)c3ccc(NCCn4cccc4)cc3)c2c1", "note": "[Example 169, 3-(4-((2-(1H-Pyrrol-1-yl)ethyl)amino)benzamido)-N-(thiophen-2-ylmethyl)-1H-indazole-5-carboxamide]", "values": [
      {"measurement": "IC50", "result": 0.03, "unit": "µM"}
    ]},
    {"molecule": "O=C(NCc1cccs1)c1ccc2[nH]nc(NC(=O)c3ccc(NCCC4CCOCC4)cc3)c2c1", "note": "[Example 160, 3-(4-((2-(Tetrahydro-2H-pyran-4-yl)ethyl)amino)benzamido)-N-(thiophen-2-ylmethyl)-1H-indazole-5-carboxamide]", "values": [
      {"measurement": "IC50", "result": 0.0054, "unit": "µM"}
    ]},
    {"molecule": "O=C(NCc1cccs1)c1ccc2[nH]nc(NS(=O)(=O)c3ccccc3)c2c1", "note": "[Example 39, 3-(Phenylsulfonamido)-N-(thiophen-2-ylmethyl)-1H-indazole-5-carboxamide]", "values": [
      {"measurement": "IC50", "result": "> 10", "unit": "µM"}
    ]},
    {"molecule": "COc1ccc(C(=O)Nc2n[nH]c3ccc(C(=O)N4CCc5ccsc5C4)cc23)cc1", "note": "[Example 5, 4-Methoxy-N-(5-(4,5,6,7-tetrahydrothieno[2,3-c]pyridine-6-carbonyl)-1H-indazol-3-yl)benzamide]", "values": [
      {"measurement": "IC50", "result": 8.4, "unit": "µM"}
    ]},
    {"molecule": "COc1ccc(C(=O)Nc2n[nH]c3ccc(C(=O)N(C)Cc4cccs4)cc23)cc1", "note": "[Example 4, 3-(4-Methoxybenzamido)-N-methyl-N-(thiophen-2-ylmethyl)-1H-indazole-5-carboxamide]", "values": [
      {"measurement": "IC50", "result": 0.83, "unit": "µM"}
    ]},
    {"molecule": "O=C(NCc1cccs1)c1ccc2[nH]nc(NC(=O)c3ccccc3)c2c1", "note": "[Example 13, 3-Benzamido-N-(thiophen-2-ylmethyl)-1H-indazole-5-carboxamide]", "values": [
      {"measurement": "IC50", "result": 0.036, "unit": "µM"}
    ]},
    {"molecule": "O=C(NCc1cccs1)c1ccc2[nH]nc(NC(=O)c3ccc(NC4CCCCCC4)cc3)c2c1", "note": "[Example 164, 3-(4-(Cycloheptylamino)benzamido)-N-(thiophen-2-ylmethyl)-1H-indazole-5-carboxamide]", "values": [
      {"measurement": "IC50", "result": 5.6, "unit": "µM"}
    ]},
    {"molecule": "CC(NC(=O)c1ccc2[nH]nc(NC(=O)c3ccc(F)cc3)c2c1)c1cccs1", "note": "(stereo not shown) [Example 14, 3-(4-Fluorobenzamido)-N-(1-(thiophen-2-yl)ethyl)-1H-indazole-5-carboxamide]", "values": [
      {"measurement": "IC50", "result": 0.042, "unit": "µM"}
    ]},
    {"molecule": "O=C(NCc1cccs1)c1ccc2[nH]nc(NC(=O)c3ccc(NC4CCCCC4)cc3)c2c1", "note": "[Example 162, 3-(4-(Cyclohexylamino)benzamido)-N-(thiophen-2-ylmethyl)-1H-indazole-5-carboxamide]", "values": [
      {"measurement": "IC50", "result": 0.08, "unit": "µM"}
    ]},
    {"molecule": "O=C(NCc1ccncc1)c1ccc2[nH]nc(NC(=O)c3ccc(F)cc3)c2c1", "note": "[Example 29, 3-(4-Fluorobenzamido)-N-(pyridin-4-ylmethyl)-1H-indazole-5-carboxamide]", "values": [
      {"measurement": "IC50", "result": 0.28, "unit": "µM"}
    ]},
    {"molecule": "COc1ccc(C(=O)Nc2n[nH]c3ccc(-c4ccc(CN5CCOCC5)s4)cc23)cc1", "note": "[Example 12, 4-Methoxy-N-(5-(5-(morpholinomethyl)thiophen-2-yl)-1H-indazol-3-yl)benzamide]", "values": [
      {"measurement": "IC50", "result": 0.43, "unit": "µM"}
    ]},
    {"molecule": "O=C(NCc1cccs1)c1ccc2[nH]nc(NC(=O)c3ccc(O)cc3)c2c1", "note": "[Example 200, 3-(4-Hydroxybenzamido)-N-(thiophen-2-ylmethyl)-1H-indazole-5-carboxamide]", "values": [
      {"measurement": "IC50", "result": 0.093, "unit": "µM"}
    ]}
  ]
}
